Data published in ChEMBL document CHEMBL5465560, “Selectivity Literature for EUbOPEN Chemogenomic Library” (2024).

Assays:
[1] = target: Serine/threonine-protein kinase 26 (Homo sapiens, UniProt Q9P289); test: Selectivity interaction (Kinase panel (KiNativ target engagement assay in Jurkat cells)) EUB0001635a STK26; format: cell-based; conditions: Selectivity number of off-targets 0.0, Selectivity number of targets 233.0, Source Knowledge https://www.sciencedirect.com/science/article/pii/S2451945619300674?via%3Dihub, at 1 µM
Serine/threonine-protein kinase 26, sequence (Q9P289 2-416 limits assumed): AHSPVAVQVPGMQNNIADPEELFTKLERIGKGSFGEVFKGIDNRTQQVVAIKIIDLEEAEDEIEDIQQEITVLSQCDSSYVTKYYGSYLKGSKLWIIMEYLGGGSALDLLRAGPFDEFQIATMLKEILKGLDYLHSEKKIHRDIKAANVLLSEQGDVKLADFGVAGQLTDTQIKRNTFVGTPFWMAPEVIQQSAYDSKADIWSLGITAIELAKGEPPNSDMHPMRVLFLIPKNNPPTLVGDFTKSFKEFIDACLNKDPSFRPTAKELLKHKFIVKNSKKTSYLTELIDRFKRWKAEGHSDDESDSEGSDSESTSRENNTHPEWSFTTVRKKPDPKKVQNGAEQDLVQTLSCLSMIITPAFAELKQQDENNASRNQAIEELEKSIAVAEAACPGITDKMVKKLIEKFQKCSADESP

[2] = target: Nucleosome-remodeling factor subunit BPTF (Homo sapiens, UniProt Q12830); test: Selectivity interaction (Human bromodomain panel (DSF assay)) EUB0000233b BPTF
[3] = target: Protein arginine N-methyltransferase 5 (Homo sapiens, UniProt O14744); conditions: at 1 µM
Protein arginine N-methyltransferase 5, sequence (O14744 whole entry): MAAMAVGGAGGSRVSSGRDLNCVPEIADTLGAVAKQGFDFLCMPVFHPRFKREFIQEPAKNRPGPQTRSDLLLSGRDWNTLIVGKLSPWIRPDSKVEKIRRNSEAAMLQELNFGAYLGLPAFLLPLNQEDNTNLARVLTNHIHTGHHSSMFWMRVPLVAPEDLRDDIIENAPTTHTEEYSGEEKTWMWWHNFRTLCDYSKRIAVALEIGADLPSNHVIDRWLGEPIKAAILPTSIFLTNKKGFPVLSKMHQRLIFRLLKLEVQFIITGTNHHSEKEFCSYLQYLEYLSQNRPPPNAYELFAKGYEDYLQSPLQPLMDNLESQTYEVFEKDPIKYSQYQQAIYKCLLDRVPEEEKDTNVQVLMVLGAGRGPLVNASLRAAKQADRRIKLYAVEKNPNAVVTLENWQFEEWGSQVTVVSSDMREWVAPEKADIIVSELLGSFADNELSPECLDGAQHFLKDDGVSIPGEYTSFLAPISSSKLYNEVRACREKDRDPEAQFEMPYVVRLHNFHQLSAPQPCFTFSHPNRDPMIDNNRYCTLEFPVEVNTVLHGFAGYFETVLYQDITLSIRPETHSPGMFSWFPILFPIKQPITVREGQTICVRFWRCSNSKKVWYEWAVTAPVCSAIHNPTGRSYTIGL

[4] = target: Mitogen-activated protein kinase 1 (Homo sapiens, UniProt P28482); test: Selectivity interaction (KinomeScan (DiscoverX)) EUB0000695a MAPK1; conditions: at 100 nM
Mitogen-activated protein kinase 1, sequence (P28482 whole entry): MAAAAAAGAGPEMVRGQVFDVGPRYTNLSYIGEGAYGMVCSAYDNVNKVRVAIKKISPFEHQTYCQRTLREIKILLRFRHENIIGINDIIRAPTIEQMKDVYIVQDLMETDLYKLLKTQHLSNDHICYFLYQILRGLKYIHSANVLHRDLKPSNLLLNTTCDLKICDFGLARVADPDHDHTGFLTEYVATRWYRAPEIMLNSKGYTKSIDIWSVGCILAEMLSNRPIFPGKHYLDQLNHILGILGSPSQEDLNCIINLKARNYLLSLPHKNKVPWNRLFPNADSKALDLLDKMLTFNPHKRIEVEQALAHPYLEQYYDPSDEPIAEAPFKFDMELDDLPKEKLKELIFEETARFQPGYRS

[5] = target: T1, Myosin-IIIb (Homo sapiens) (UniProt Q8WXR4); test: Selectivity interaction (KinomeScan (DiscoverX)) EUB0001079a MYO3B; conditions: at 1 µM
T1 sequence (whole entry): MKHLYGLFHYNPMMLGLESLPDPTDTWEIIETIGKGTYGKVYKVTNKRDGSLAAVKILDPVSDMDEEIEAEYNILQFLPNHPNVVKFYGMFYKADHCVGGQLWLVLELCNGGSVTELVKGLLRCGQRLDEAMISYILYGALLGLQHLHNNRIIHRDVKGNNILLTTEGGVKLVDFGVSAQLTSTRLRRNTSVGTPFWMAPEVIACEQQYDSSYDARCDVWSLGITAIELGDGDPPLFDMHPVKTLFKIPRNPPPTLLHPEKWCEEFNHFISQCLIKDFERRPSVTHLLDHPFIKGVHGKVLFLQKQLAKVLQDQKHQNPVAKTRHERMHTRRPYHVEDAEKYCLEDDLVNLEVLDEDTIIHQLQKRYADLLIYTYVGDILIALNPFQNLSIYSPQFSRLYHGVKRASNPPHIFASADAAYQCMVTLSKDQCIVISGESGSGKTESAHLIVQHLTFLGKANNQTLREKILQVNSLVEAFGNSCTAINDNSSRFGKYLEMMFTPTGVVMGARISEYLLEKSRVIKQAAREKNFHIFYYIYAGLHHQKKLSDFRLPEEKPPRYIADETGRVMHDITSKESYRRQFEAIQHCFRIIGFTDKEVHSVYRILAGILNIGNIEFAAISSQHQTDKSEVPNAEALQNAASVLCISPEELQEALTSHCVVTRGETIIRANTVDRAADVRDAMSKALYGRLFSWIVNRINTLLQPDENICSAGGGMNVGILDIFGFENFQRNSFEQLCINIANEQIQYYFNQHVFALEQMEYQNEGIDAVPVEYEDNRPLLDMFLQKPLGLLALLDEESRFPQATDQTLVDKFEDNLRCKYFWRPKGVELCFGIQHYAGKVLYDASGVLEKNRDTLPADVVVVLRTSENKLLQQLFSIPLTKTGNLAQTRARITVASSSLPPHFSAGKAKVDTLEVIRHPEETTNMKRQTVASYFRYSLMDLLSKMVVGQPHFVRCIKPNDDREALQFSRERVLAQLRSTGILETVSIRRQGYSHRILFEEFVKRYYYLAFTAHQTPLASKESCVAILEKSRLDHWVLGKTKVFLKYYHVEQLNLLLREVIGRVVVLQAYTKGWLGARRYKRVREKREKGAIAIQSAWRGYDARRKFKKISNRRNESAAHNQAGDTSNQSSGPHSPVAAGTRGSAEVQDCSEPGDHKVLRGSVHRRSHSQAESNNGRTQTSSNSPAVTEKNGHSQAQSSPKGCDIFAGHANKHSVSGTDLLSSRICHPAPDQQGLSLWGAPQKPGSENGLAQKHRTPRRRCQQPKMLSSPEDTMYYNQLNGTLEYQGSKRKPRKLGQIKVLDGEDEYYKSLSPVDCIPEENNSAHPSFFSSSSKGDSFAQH

[6] = target: Serine/threonine-protein kinase 16 (Homo sapiens, UniProt O75716); test: Selectivity interaction (LanthaScreen Eu Kinase Binding Assay) EUB0001632a STK16; conditions: at 10 µM
Serine/threonine-protein kinase 16, sequence (O75716 whole entry, canonical isoform): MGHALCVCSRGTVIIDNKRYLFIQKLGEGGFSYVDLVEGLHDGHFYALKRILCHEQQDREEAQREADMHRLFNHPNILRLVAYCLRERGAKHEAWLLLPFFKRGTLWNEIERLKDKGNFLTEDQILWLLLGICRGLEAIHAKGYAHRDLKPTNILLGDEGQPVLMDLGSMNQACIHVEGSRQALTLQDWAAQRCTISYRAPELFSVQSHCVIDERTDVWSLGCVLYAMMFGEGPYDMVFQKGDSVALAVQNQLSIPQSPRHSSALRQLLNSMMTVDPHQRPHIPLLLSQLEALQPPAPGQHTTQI

[7] = target: Phosphatidylinositol 4,5-bisphosphate 3-kinase catalytic subunit gamma isoform (Homo sapiens) (UniProt P48736); test: Selectivity interaction (KinomeScan (DiscoverX)) EUB0000666a PIK3CG; conditions: at 10 µM
[8] = target: Tyrosine-protein kinase CSK (Homo sapiens) (UniProt P41240); test: Selectivity interaction (Kinase screening (Nanosyn)) EUB0000604a CSK
Tyrosine-protein kinase CSK (Homo sapiens), sequence (P41240 2-450 limits assumed): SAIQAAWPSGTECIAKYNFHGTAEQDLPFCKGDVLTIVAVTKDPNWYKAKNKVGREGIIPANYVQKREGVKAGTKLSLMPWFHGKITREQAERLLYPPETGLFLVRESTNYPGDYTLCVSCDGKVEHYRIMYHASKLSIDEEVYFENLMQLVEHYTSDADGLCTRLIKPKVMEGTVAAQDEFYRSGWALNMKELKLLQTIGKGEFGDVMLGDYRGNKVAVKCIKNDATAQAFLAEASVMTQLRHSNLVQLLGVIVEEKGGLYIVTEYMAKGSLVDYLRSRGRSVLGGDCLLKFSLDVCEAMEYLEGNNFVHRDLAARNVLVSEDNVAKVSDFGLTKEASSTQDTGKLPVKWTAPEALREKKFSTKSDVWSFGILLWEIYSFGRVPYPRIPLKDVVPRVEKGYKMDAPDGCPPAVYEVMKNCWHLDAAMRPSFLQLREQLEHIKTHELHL

[9] = target: Macrophage-stimulating protein receptor (Homo sapiens, UniProt Q04912); test: Selectivity interaction (ProQinase) EUB0000171b MST1R
Macrophage-stimulating protein receptor, sequence (Q04912 25-304 limits assumed): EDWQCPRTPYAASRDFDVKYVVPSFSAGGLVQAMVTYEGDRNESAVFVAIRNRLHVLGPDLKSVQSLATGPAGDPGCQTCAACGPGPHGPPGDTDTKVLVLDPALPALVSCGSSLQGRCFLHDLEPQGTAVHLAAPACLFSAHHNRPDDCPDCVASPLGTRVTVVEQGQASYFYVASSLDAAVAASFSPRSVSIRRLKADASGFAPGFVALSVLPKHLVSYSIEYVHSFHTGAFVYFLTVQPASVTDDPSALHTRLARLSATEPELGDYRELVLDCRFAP
Macrophage-stimulating protein receptor, sequence (Q04912 310-1400 limits assumed): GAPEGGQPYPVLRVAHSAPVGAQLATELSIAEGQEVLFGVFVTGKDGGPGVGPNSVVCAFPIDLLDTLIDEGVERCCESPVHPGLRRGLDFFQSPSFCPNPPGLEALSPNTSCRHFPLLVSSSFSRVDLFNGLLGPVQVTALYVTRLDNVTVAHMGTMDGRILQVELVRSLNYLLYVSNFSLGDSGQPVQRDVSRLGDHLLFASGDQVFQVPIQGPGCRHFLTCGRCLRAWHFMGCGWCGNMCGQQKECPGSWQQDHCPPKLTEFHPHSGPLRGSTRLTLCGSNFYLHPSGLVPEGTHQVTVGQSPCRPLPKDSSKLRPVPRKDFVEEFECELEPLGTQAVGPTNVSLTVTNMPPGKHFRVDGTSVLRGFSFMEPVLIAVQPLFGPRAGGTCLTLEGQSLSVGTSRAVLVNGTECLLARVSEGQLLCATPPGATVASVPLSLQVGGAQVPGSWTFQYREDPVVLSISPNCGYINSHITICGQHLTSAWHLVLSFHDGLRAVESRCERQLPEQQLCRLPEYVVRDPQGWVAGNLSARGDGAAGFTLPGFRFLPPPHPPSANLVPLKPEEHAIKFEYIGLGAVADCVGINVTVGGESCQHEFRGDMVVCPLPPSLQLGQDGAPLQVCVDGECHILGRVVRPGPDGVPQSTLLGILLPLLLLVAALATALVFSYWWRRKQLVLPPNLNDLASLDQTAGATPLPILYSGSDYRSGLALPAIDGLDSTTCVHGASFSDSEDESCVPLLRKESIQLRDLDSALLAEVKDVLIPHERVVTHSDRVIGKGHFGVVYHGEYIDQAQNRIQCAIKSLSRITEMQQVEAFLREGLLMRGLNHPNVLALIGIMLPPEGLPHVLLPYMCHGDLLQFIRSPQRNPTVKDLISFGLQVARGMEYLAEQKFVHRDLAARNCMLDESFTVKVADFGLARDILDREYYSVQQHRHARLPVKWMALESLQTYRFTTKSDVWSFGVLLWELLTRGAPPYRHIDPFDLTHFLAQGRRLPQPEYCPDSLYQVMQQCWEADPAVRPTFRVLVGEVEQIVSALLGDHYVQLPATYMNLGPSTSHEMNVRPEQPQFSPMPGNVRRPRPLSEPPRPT

[10] = target: T2, Eukaryotic elongation factor 2 kinase (Homo sapiens) (UniProt O00418); test: Selectivity interaction (ProQinase) EUB0000171b EEF2K
T2 sequence (whole entry): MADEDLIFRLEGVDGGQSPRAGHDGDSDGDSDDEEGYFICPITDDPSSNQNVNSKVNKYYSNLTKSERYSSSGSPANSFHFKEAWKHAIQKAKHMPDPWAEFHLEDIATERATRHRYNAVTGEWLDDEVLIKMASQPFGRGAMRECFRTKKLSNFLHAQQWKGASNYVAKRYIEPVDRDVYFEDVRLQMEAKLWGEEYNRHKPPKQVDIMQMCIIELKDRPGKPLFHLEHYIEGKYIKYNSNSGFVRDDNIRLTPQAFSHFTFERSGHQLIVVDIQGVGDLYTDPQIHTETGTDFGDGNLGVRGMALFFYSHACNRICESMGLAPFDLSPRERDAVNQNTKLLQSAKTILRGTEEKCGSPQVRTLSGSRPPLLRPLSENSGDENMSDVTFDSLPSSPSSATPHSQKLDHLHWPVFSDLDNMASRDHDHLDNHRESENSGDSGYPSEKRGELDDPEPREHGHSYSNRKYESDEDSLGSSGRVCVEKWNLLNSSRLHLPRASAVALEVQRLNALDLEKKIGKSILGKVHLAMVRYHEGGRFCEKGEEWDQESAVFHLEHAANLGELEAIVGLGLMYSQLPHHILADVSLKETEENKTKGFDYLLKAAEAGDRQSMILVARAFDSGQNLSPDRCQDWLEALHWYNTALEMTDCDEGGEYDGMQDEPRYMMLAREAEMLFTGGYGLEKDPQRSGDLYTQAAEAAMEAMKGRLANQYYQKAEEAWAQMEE

[11] = target: Myosin light chain kinase 2, skeletal/cardiac muscle (Homo sapiens) (UniProt Q9H1R3); test: Selectivity interaction (SelectScreen profiling (Invitrogen)) EUB0000607a MYLK2; conditions: at 2 µM
Myosin light chain kinase 2, skeletal/cardiac muscle (Homo sapiens), sequence (Q9H1R3 whole entry): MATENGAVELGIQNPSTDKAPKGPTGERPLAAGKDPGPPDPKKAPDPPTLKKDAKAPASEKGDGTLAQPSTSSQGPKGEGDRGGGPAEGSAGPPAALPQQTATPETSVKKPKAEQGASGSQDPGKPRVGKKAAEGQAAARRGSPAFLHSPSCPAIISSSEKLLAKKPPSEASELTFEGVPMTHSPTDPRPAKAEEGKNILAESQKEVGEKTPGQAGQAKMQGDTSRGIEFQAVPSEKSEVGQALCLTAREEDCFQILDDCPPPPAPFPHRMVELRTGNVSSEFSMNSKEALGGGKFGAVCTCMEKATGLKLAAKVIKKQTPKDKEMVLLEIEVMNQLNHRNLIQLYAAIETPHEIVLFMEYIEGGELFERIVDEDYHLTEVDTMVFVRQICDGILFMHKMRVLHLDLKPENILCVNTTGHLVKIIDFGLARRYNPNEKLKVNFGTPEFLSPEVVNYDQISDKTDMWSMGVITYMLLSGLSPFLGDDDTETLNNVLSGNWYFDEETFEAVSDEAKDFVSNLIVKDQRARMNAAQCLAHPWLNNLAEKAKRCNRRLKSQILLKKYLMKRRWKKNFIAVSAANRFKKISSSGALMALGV

[12] = target: Mitogen-activated protein kinase 11 (Homo sapiens) (UniProt Q15759); test: Selectivity interaction (KinomeScan (DiscoverX)) EUB0000607a MAPK11; conditions: at 10 µM
Mitogen-activated protein kinase 11 (Homo sapiens), sequence (Q15759 whole entry): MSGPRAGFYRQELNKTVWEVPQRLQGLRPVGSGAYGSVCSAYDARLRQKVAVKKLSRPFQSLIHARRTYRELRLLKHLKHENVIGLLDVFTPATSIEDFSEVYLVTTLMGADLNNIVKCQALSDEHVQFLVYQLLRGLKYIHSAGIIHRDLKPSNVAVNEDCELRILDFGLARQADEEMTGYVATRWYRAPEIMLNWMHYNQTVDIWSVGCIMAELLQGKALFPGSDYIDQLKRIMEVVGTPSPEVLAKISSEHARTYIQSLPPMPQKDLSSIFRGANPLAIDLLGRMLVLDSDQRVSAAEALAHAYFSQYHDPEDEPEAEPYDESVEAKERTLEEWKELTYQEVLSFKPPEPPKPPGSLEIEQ

C=CC(=O)Nc1ccc(C(=O)Nc2[nH]nc3c2CN(C(=O)N[C@H](CN(C)C)c2ccccc2)C3(C)C)cc1
% of engagement [1]: -26.3%

CN(C)CCCOc1ccc(-c2cc(NCCCn3cccn3)nc(S(C)(=O)=O)n2)cc1
dTM [2]: 3.8 K

CNCCN1CCC(c2cc(CN(C)C(=O)c3cccc(Oc4ccccc4)c3)ccn2)CC1
% activity [3]: > 90%

Cc1cc(F)c(C(=O)Nc2cccc(-c3nncn3C(C)C)n2)cc1-n1cnc(C2CC2)c1
% of control [4]: 98%

Nc1cnc(N2CCc3cc(S(=O)(=O)Nc4c(F)cc(Cl)cc4F)cc(N4CCCC4=O)c32)nc1 [TP-020n]
% of control [5]: 100%

Cn1cc(-n2cnc3c(NCc4nc5cc(Cl)c(Cl)cc5[nH]4)nc(N4CCOCC4)nc32)cn1
% of inhibition [6]: -24.9%

O=C(NOC[C@H](O)CO)c1ccc(F)c(F)c1Nc1ccc(I)cc1F
% of control [7]: 88%

Cc1cnc(Nc2ccc(F)cc2Cl)nc1-c1c[nH]c(C(=O)N[C@H](CO)c2cccc(Cl)c2)c1
% of inhibition [8]: 3%

C=CC(=O)Nc1cccc(C(=O)Nc2ccc(Nc3cc(-c4[nH]c(SC)nc4C)ccn3)cc2)c1
% of control ([9]; at 1 µM): 92% | % of control ([9]; at 5 µM): 104% | % of control ([10]; at 1 µM): 91% | % of control ([10]; at 5 µM): 92%

CNC(=O)Nc1ccc(-c2nc(N3CC4CCC(C3)O4)c3cnn(C4CCC5(CC4)OCCO5)c3n2)cc1
% of inhibition [11]: 8% | % of control [12]: 100%
